From the NIST ThermoML archive (doi:10.1016/j.jct.2016.08.010)
Numbers after ± are expanded uncertainties.

Columns and labels:
[1] = 100 kPa; for speed of sound: Frequency=3 MHz, Sing-around technique in a fixed-path interferometer; for mass density: Vibrating tube method
[2] = molar heat capacity at constant pressure; details: 100 kPa, Small sample (50 mg) DSC
[3] = xn = mol fraction of the nth substance listed; details: 100 kPa, Liquid; for speed of sound: Frequency=3 MHz, Sing-around technique in a fixed-path interferometer; for mass density: Vibrating tube method
[4] = molar heat capacity at constant pressure; xn = mol fraction of the nth substance listed; details: 100 kPa, Liquid, Small sample (50 mg) DSC

For `CCCCn1cc[n+](C)c1C.F[B-](F)(F)F` [1-butyl-2,3-dimethylimidazolium tetrafluoroborate], the speed of sound ([1]; 293.15 K, Metastable liquid) was 1659.7 ± 1.5 m/s, the mass density ([1]; 293.15 K, Metastable liquid) was 1193.5 ± 2 kg/m3 and the speed of sound ([1]; 298.15 K, Metastable liquid) was 1645.7 ± 1.5 m/s. The mass density ([1]; 298.15 K, Metastable liquid) was 1191.8 ± 2 kg/m3, the speed of sound ([1]; 303.15 K, Metastable liquid) was 1632.5 ± 1.5 m/s and the mass density ([1]; 303.15 K, Metastable liquid) was 1189.7 ± 2 kg/m3. The speed of sound ([1]; 308.15 K, Metastable liquid) was 1619.8 ± 1.5 m/s, the mass density ([1]; 308.15 K, Metastable liquid) was 1187.9 ± 2 kg/m3 and the “molar heat capacity at constant pressure” value ([2]; 293.15 K, Metastable liquid) was 413.03 ± 8.8 J/K/mol. For the same molecule, the “molar heat capacity at constant pressure” value ([2]; 298.15 K, Metastable liquid) was 416.01 ± 8.9 J/K/mol, the “molar heat capacity at constant pressure” value ([2]; 303.15 K, Metastable liquid) was 418.84 ± 8.9 J/K/mol and the “molar heat capacity at constant pressure” value ([2]; 308.15 K, Metastable liquid) was 421.7 ± 9 J/K/mol.

With `CCCCn1cc[n+](C)c1.F[B-](F)(F)F` [1-butyl-3-methylimidazolium tetrafluoroborate] the speed of sound ([1]; 293.15 K, Liquid) was 1578.1 ± 1.7 m/s, the mass density ([1]; 293.15 K, Liquid) was 1203.1 ± 2.1 kg/m3 and the speed of sound ([1]; 298.15 K, Liquid) was 1565.5 ± 1.7 m/s. It also gave a mass density ([1]; 298.15 K, Liquid) of 1198.9 ± 2.1 kg/m3, a speed of sound ([1]; 303.15 K, Liquid) of 1554.1 ± 1.7 m/s and a mass density ([1]; 303.15 K, Liquid) of 1195.3 ± 2.1 kg/m3. The speed of sound ([1]; 308.15 K, Liquid) was 1542.3 ± 1.7 m/s, the mass density ([1]; 308.15 K, Liquid) was 1191.7 ± 2.1 kg/m3 and the “molar heat capacity at constant pressure” value ([2]; 293.15 K, Liquid) was 362.35 ± 7.7 J/K/mol. For the same molecule, the “molar heat capacity at constant pressure” value ([2]; 298.15 K, Liquid) was 365.12 ± 7.8 J/K/mol, the “molar heat capacity at constant pressure” value ([2]; 303.15 K, Liquid) was 367.48 ± 7.8 J/K/mol and the “molar heat capacity at constant pressure” value ([2]; 308.15 K, Liquid) was 369.88 ± 7.9 J/K/mol.

For `CCCCn1cc[n+](C)c1.F[B-](F)(F)F` [1-butyl-3-methylimidazolium tetrafluoroborate] + CCCCn1cc[n+](C)c1C.F[B-](F)(F)F, the speed of sound ([3]; 293.15 K, x2 = 0) was 1578.1 ± 1.7 m/s, the mass density ([3]; 293.15 K, x2 = 0) was 1203.1 ± 2.1 kg/m3 and the speed of sound ([3]; 298.15 K, x2 = 0) was 1565.5 ± 1.7 m/s. It also gave a mass density ([3]; 298.15 K, x2 = 0) of 1198.9 ± 2.1 kg/m3, a speed of sound ([3]; 303.15 K, x2 = 0) of 1554.1 ± 1.7 m/s and a mass density ([3]; 303.15 K, x2 = 0) of 1195.3 ± 2.1 kg/m3. The speed of sound ([3]; 308.15 K, x2 = 0) was 1542.3 ± 1.7 m/s, the mass density ([3]; 308.15 K, x2 = 0) was 1191.7 ± 2.1 kg/m3 and the “molar heat capacity at constant pressure” value ([4]; 293.15 K, x2 = 0) was 362.35 ± 7.7 J/K/mol. The “molar heat capacity at constant pressure” value ([4]; 298.15 K, x2 = 0) was 365.12 ± 7.8 J/K/mol, the “molar heat capacity at constant pressure” value ([4]; 303.15 K, x2 = 0) was 367.48 ± 7.8 J/K/mol and the “molar heat capacity at constant pressure” value ([4]; 308.15 K, x2 = 0) was 369.88 ± 7.9 J/K/mol.

Molecule `CCCCn1cc[n+](C)c1.F[B-](F)(F)F` [1-butyl-3-methylimidazolium tetrafluoroborate] + CCn1cc[n+](C)c1.F[B-](F)(F)F has a speed of sound ([3]; 293.15 K, x1 = 1) of 1578.1 ± 1.7 m/s, a mass density ([3]; 293.15 K, x1 = 1) of 1203.1 ± 2.1 kg/m3 and a speed of sound ([3]; 298.15 K, x1 = 1) of 1565.5 ± 1.7 m/s. The mass density ([3]; 298.15 K, x1 = 1) was 1198.9 ± 2.1 kg/m3, the speed of sound ([3]; 303.15 K, x1 = 1) was 1554.1 ± 1.7 m/s and the mass density ([3]; 303.15 K, x1 = 1) was 1195.3 ± 2.1 kg/m3. The speed of sound ([3]; 308.15 K, x1 = 1) was 1542.3 ± 1.7 m/s, the mass density ([3]; 308.15 K, x1 = 1) was 1191.7 ± 2.1 kg/m3 and the “molar heat capacity at constant pressure” value ([4]; 293.15 K, x1 = 1) was 362.35 ± 7.7 J/K/mol. The “molar heat capacity at constant pressure” value ([4]; 298.15 K, x1 = 1) was 365.12 ± 7.8 J/K/mol, the “molar heat capacity at constant pressure” value ([4]; 303.15 K, x1 = 1) was 367.48 ± 7.8 J/K/mol and the “molar heat capacity at constant pressure” value ([4]; 308.15 K, x1 = 1) was 369.88 ± 7.9 J/K/mol.

`CCn1cc[n+](C)c1.F[B-](F)(F)F` [1-ethyl-3-methylimidazolium tetrafluoroborate] gave a speed of sound ([1]; 293.15 K, Liquid) of 1631.1 ± 1.6 m/s, a mass density ([1]; 293.15 K, Liquid) of 1283.9 ± 2 kg/m3 and a speed of sound ([1]; 298.15 K, Liquid) of 1619.2 ± 1.6 m/s. For the same molecule, the mass density ([1]; 298.15 K, Liquid) was 1279.9 ± 2 kg/m3, the speed of sound ([1]; 303.15 K, Liquid) was 1607.4 ± 1.6 m/s and the mass density ([1]; 303.15 K, Liquid) was 1276.3 ± 2 kg/m3. For the same molecule, the speed of sound ([1]; 308.15 K, Liquid) was 1596.2 ± 1.6 m/s, the mass density ([1]; 308.15 K, Liquid) was 1272.1 ± 2 kg/m3 and the “molar heat capacity at constant pressure” value ([2]; 293.15 K, Liquid) was 303.2 ± 6.5 J/K/mol. For the same molecule, the “molar heat capacity at constant pressure” value ([2]; 298.15 K, Liquid) was 304.53 ± 6.5 J/K/mol, the “molar heat capacity at constant pressure” value ([2]; 303.15 K, Liquid) was 306.29 ± 6.5 J/K/mol and the “molar heat capacity at constant pressure” value ([2]; 308.15 K, Liquid) was 308.03 ± 6.6 J/K/mol.

`CCn1cc[n+](C)c1.F[B-](F)(F)F` [1-ethyl-3-methylimidazolium tetrafluoroborate] + CCCCn1cc[n+](C)c1C.F[B-](F)(F)F showed a speed of sound ([3]; 293.15 K, x2 = 0) of 1631.1 ± 1.6 m/s, a mass density ([3]; 293.15 K, x2 = 0) of 1283.9 ± 2 kg/m3 and a speed of sound ([3]; 298.15 K, x2 = 0) of 1619.2 ± 1.6 m/s. The mass density ([3]; 298.15 K, x2 = 0) was 1279.9 ± 2 kg/m3, the speed of sound ([3]; 303.15 K, x2 = 0) was 1607.4 ± 1.6 m/s and the mass density ([3]; 303.15 K, x2 = 0) was 1276.3 ± 2 kg/m3. The speed of sound ([3]; 308.15 K, x2 = 0) was 1596.2 ± 1.6 m/s, the mass density ([3]; 308.15 K, x2 = 0) was 1272.1 ± 2 kg/m3 and the “molar heat capacity at constant pressure” value ([4]; 293.15 K, x2 = 0) was 303.2 ± 6.5 J/K/mol. The “molar heat capacity at constant pressure” value ([4]; 298.15 K, x2 = 0) was 304.53 ± 6.5 J/K/mol, the “molar heat capacity at constant pressure” value ([4]; 303.15 K, x2 = 0) was 306.29 ± 6.5 J/K/mol and the “molar heat capacity at constant pressure” value ([4]; 308.15 K, x2 = 0) was 308.03 ± 6.6 J/K/mol.
